Experimental findings from paper PMC9726829, “Structures and mechanism of chitin synthase and its inhibition by antifungal drug Nikkomycin Z” (Cell Discovery, 2022) are described below.

Series [1] concerns the target T1, S. cerevisiae Chs1 (Saccharomyces cerevisiae, UniProt P08004).
T1 construct: expressed and purified membrane protein, homodimer; residues numbered to 1131; residues 1-377, 699-703, 897-907, 1076-1084 not resolved
T1 sequence (P08004 1-1131): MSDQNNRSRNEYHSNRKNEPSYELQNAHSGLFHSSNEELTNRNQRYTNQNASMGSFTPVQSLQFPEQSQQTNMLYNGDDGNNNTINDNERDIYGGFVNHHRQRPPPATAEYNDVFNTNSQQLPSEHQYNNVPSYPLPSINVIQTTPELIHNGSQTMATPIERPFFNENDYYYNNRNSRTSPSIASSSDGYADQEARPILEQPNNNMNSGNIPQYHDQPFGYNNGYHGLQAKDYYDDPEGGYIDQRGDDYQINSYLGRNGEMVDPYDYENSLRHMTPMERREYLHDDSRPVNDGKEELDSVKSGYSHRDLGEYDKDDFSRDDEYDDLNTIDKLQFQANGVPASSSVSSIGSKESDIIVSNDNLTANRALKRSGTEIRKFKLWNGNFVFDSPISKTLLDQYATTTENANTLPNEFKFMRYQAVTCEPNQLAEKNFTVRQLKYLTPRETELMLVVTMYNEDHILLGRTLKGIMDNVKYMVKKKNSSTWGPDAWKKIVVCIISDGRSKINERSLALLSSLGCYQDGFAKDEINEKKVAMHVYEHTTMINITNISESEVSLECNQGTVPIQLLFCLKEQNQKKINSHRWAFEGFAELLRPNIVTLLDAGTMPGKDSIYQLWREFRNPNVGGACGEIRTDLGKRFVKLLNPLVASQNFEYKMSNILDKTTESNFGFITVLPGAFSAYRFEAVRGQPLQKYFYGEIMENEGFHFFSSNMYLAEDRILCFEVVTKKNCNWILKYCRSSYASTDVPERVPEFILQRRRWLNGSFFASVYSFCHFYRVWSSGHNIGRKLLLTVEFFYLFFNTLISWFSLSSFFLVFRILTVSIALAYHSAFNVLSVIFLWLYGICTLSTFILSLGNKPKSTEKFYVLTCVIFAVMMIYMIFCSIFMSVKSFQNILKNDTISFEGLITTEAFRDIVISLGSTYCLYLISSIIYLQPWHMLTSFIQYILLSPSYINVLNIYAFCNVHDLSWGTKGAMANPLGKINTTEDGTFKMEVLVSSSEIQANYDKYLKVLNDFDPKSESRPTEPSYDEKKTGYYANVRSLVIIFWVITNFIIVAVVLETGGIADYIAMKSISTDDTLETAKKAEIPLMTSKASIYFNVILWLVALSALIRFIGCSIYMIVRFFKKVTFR
As to the kind of experiment: in vitro chitin synthase activity assay; cryo-EM structure of the complex at […] A also solved. The series is classed as biochemical.

For series [2], the target named is T1, S. cerevisiae Chs1. As to the kind of experiment: in vitro chitin synthase activity assay. The series is classed as biochemical. The settings on record: activator; UDP-GlcNAc as donor substrate.
Series [3] deals with the molecule itself. As to the kind of experiment: cryo-EM structure; purified Chs1 in complex with Nikkomycin Z (NikZ), in detergent micelle; 2.9 Å, imposed C2 symmetry.

Usually IC50 stands for the point on the concentration scale where inhibition reaches its midpoint. The stoichiometry N is a count of units in the complex or per binding partner.

In the case of `C[C@@H]([C@H](N)C(=O)N[C@H](C(=O)O)[C@H]1O[C@@H](n2ccc(=O)[nH]c2=O)[C@H](O)[C@@H]1O)[C@H](O)c1ccc(O)cn1` [Nikkomycin Z], in series [1], the IC50 is 367 nM.
Turning to `CC(=O)N[C@H]1C(O)O[C@H](CO)[C@@H](O)[C@@H]1O` (stereo partly drawn) [N-acetylglucosamine], in series [2], the “in vitro chitin synthase activity assay” value is given as “Chs1 activity can be significantly stimulated by GlcNAc”.

B1: S. cerevisiae chitin synthase Chs1 (enzyme)
chain: MSDQNNRSRNEYHSNRKNEPSYELQNAHSGLFHSSNEELTNRNQRYTNQNASMGSFTPVQSLQFPEQSQQTNMLYNGDDGNNNTINDNERDIYGGFVNHHRQRPPPATAEYNDVFNTNSQQLPSEHQYNNVPSYPLPSINVIQTTPELIHNGSQTMATPIERPFFNENDYYYNNRNSRTSPSIASSSDGYADQEARPILEQPNNNMNSGNIPQYHDQPFGYNNGYHGLQAKDYYDDPEGGYIDQRGDDYQINSYLGRNGEMVDPYDYENSLRHMTPMERREYLHDDSRPVNDGKEELDSVKSGYSHRDLGEYDKDDFSRDDEYDDLNTIDKLQFQANGVPASSSVSSIGSKESDIIVSNDNLTANRALKRSGTEIRKFKLWNGNFVFDSPISKTLLDQYATTTENANTLPNEFKFMRYQAVTCEPNQLAEKNFTVRQLKYLTPRETELMLVVTMYNEDHILLGRTLKGIMDNVKYMVKKKNSSTWGPDAWKKIVVCIISDGRSKINERSLALLSSLGCYQDGFAKDEINEKKVAMHVYEHTTMINITNISESEVSLECNQGTVPIQLLFCLKEQNQKKINSHRWAFEGFAELLRPNIVTLLDAGTMPGKDSIYQLWREFRNPNVGGACGEIRTDLGKRFVKLLNPLVASQNFEYKMSNILDKTTESNFGFITVLPGAFSAYRFEAVRGQPLQKYFYGEIMENEGFHFFSSNMYLAEDRILCFEVVTKKNCNWILKYCRSSYASTDVPERVPEFILQRRRWLNGSFFASVYSFCHFYRVWSSGHNIGRKLLLTVEFFYLFFNTLISWFSLSSFFLVFRILTVSIALAYHSAFNVLSVIFLWLYGICTLSTFILSLGNKPKSTEKFYVLTCVIFAVMMIYMIFCSIFMSVKSFQNILKNDTISFEGLITTEAFRDIVISLGSTYCLYLISSIIYLQPWHMLTSFIQYILLSPSYINVLNIYAFCNVHDLSWGTKGAMANPLGKINTTEDGTFKMEVLVSSSEIQANYDKYLKVLNDFDPKSESRPTEPSYDEKKTGYYANVRSLVIIFWVITNFIIVAVVLETGGIADYIAMKSISTDDTLETAKKAEIPLMTSKASIYFNVILWLVALSALIRFIGCSIYMIVRFFKKVTFR
notes: Chitin synthase 1 (Chs1) of S. cerevisiae; residues 1-377, 699-703, 897-907 and 1076-1084 are not resolved in the map; Homodimer; source: expressed and purified
Take B1: in series [3], the “stoichiometry N” value worked out at 2.
